Assay [1] concerns HMGB1 release. Kind of assay: HMGB1 release in vitro by inflammatory mediators (data not shown). It is filed as cell-based.
Assay [2] concerns SAA. As to the kind of experiment: SAA-induced HMGB1 release in macrophages (Western blotting). It is filed as cell-based. The following applies: in vitro. The protocol:
FIG. 5A-5C. Epitope mapping of SAA-specific antibodies using a peptide library. A, Sequence of synthetic SAA peptides (SEQ ID NO:19). […] Macrophages were stimulated with SAA in the absence or presence of different (R1, R2, R3) IgGs, and HMGB1 release was assayed by Western blotting. C, Epitope mapping by dot blot. Note that all rabbit IgGs capable of protecting against lethal endotoxemia cross-reacted with P8 peptide.
Epitope mapping of SAA-neutralizing antibodies. To test the possibility that antibodies or peptides antagonists targeting different SAA domains may divergently affect the outcomes of LSI, SAA-specific antibodies were generated, and the epitopes of these polyclonal IgGs determined using a peptide library (18-mer offset by 6) spanning the entire SAA protein (FIG. 5A). […] Following repetitive immunizations, the titers of anti-SAA IgGs were dramatically elevated in most rabbits (e.g., R1 and R3).
For orientation: Immunoblotting shows a protein as a band on a membrane.

“Also recorded” adds a separate entry of the source.

Turning to “EGF: cytoprotective peptide (NSDSECPLSHDGYCLHDGVCMYIEALDKYACNCVVGYIGERCQYRDLKWWELR; Epidermal growth factor; UniProt P01133 971-1023, looked up)”, the “induction of HMGB1 release in vitro” value in assay [1] is listed as “unable to induce HMGB1 release”.

Regarding “IL-6: inflammatory mediator, sepsis surrogate marker”, the “induction of HMGB1 release in vitro” value in assay [1] is on record as “unable to induce HMGB1 release”. Regarding “IL-8: inflammatory mediator, sepsis surrogate marker”, in assay [1], the “induction of HMGB1 release in vitro” value is “unable to induce HMGB1 release”.

As to “REANYIGSDKYFHARGNY (listed as Homo sapiens) [Clone P8, SAA peptide (18-mer) corresponding to residues 25-42]”, in assay [2], the “effect of pre-incubation with peptide on anti-SAA-IgG-mediated inhibition of SAA-induced HMGB1 release” value was “impaired” and the “inhibition of SAA-induced HMGB1 release” value is “dose-dependently inhibited”. Take “RSFFSFLGEAFDGARDMW (listed as Homo sapiens) [Clone P4, SAA peptide corresponding to residues 1-18]”: the “inhibition of SAA-induced HMGB1 release” value in assay [2] is recorded as “dose-dependently inhibited; also recorded: inhibited SAA-induced HMGB1 release”.

Source of the values: patent US10183971B2, “SAA-domain-specific antibodies and peptide antagonists and use thereof to treat inflammatory diseases” (The Feinstein Institute For Medical Research, priority 2013, dated 2019).
